Where “and” joins values, the source holds several entries; their conditions need not be identical. Equal values may be shown once. Inconclusive results and toxic doses are left out.
Tested on: BDF1 mice, P388 leukemia ip, median survival T/C
Experiment: NCI In Vivo Anticancer Drug Screen. Data for tumor model P388 Leukemia (intraperitoneal) in B6D2F1 (BDF1) mice
Conditions: endpoint: median survival time, higher = longer survival
Summary of the method: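 Each value expresses how treatment altered survival: treated-mouse outcome over vehicle-mouse outcome, both groups bearing the transplanted tumour.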

[1] = dose: 12.5 mg/kg/injection, schedule: Q01DX009 (ip), vehicle: Klucel (hydroxypropylcellulose) (HPC)
[2] = dose: 25.0 mg/kg/injection, schedule: Q01DX009 (ip), vehicle: Klucel (hydroxypropylcellulose) (HPC)
[3] = dose: 25.0 mg/kg/injection, schedule: Q04DX003 (ip), vehicle: Klucel (hydroxypropylcellulose) (HPC)
[4] = dose: 50.0 mg/kg/injection, schedule: Q01DX009 (ip), vehicle: Klucel (hydroxypropylcellulose) (HPC)
[5] = dose: 100.0 mg/kg/injection, schedule: Q01DX009 (ip), vehicle: Klucel (hydroxypropylcellulose) (HPC)
[6] = dose: 100.0 mg/kg/injection, schedule: Q04DX003 (ip), vehicle: saline
[7] = dose: 12.5 mg/kg/injection, schedule: Q01DX009 (ip), vehicle: saline with Tween-80
[8] = dose: 25.0 mg/kg/injection, schedule: Q01DX009 (ip), vehicle: saline with Tween-80
[9] = dose: 50.0 mg/kg/injection, schedule: Q01DX009 (ip), vehicle: saline with Tween-80
[10] = dose: 50.0 mg/kg/injection, schedule: Q01DX009 (ip), vehicle: saline
[11] = dose: 100.0 mg/kg/injection, schedule: Q01DX009 (ip), vehicle: saline with Tween-80
[12] = dose: 200.0 mg/kg/injection, schedule: Q01DX009 (ip), vehicle: saline with Tween-80
[13] = dose: 50.0 mg/kg/injection, schedule: Q04DX003 (ip), vehicle: saline with Tween-80
[14] = dose: 50.0 mg/kg/injection, schedule: Q04DX003 (ip), vehicle: saline
[15] = dose: 400.0 mg/kg/injection, schedule: Q01DX009 (ip), vehicle: saline with Tween-80

`CC(=O)NC(Cc1ccc(N(CCCl)CCCl)cc1)C(=O)NC(CC(C)C)C(=O)O` (stereo not drawn) was tested, and the T/C (dose: 20.0 mg/kg/injection, schedule: Q04DX003 (ip), vehicle: other) was 152 % of control, the T/C (dose: 40.0 mg/kg/injection, schedule: Q04DX003 (ip), vehicle: other) was 203 % of control and the T/C (dose: 80.0 mg/kg/injection, schedule: Q04DX003 (ip), vehicle: other) was 239 % of control. For the same compound, the T/C (dose: 160.0 mg/kg/injection, schedule: Q04DX003 (ip), vehicle: other) was 104 % of control.

For `O=C1NC(C2CC3C=CC2C3)Nc2ccccc21` (stereo not drawn), the T/C [1] was 104 % of control, the T/C (dose: 12.5 mg/kg/injection, schedule: Q04DX003 (ip), vehicle: Klucel (hydroxypropylcellulose) (HPC)) was 100 % of control and the T/C [2] was 104 % of control. For the same compound, the T/C [3] was 86 % of control and the T/C [4] was 95 % of control.

`O=C1CCCC(=O)C1C(C[N+](=O)[O-])c1ccccc1` (stereo not drawn) was tested, and the T/C [1] was 95 % of control and 100 % of control, the T/C [2] was 97 % of control and 119 % of control and the T/C [3] was 100 % of control. The T/C [4] was 88 % of control, the T/C (dose: 50.0 mg/kg/injection, schedule: Q04DX003 (ip), vehicle: Klucel (hydroxypropylcellulose) (HPC)) was 104 % of control and the T/C [5] was 96 % of control and 110 % of control. The T/C (dose: 100.0 mg/kg/injection, schedule: Q04DX003 (ip), vehicle: Klucel (hydroxypropylcellulose) (HPC)) was 108 % of control.

`CC(C)=CCO` was tested, and the T/C [6] was 100 % of control, the T/C (dose: 200.0 mg/kg/injection, schedule: Q04DX003 (ip), vehicle: saline) was 104 % of control and the T/C (dose: 400.0 mg/kg/injection, schedule: Q04DX003 (ip), vehicle: saline) was 104 % of control.

In the case of `COc1cc(Nc2c3ccccc3nc3ccccc23)cc(OC)c1OC`, the T/C [7] is reported as 97 % of control and 99 % of control, the T/C [8] is reported as 112 % of control and the T/C [9] is reported as 109 % of control and 115 % of control.

For `OCc1cccnc1`, the T/C [10] was 93 % of control, the T/C (dose: 100.0 mg/kg/injection, schedule: Q01DX009 (ip), vehicle: saline) was 100 % of control and the T/C (dose: 200.0 mg/kg/injection, schedule: Q01DX009 (ip), vehicle: saline) was 100 % of control. For the same compound, the T/C (dose: 400.0 mg/kg/injection, schedule: Q01DX009 (ip), vehicle: saline) was 108 % of control.

In the case of `Cc1cccc(NC(=O)CCc2ccc(N3C(N)=NC(N)=NC3(C)C)cc2)c1`, the T/C (dose: 58.0 mg/kg/injection, schedule: Q01DX009 (ip), vehicle: saline with Tween-80) is reported as 111 % of control, the T/C (dose: 88.0 mg/kg/injection, schedule: Q01DX009 (ip), vehicle: saline with Tween-80) is reported as 119 % of control and the T/C (dose: 132.0 mg/kg/injection, schedule: Q01DX009 (ip), vehicle: saline with Tween-80) is reported as 119 % of control and 122 % of control.

With `Clc1ccc(C2CC3CCCCN3O2)cc1` (stereo not drawn) the T/C [9] was 90 % of control, the T/C [11] was 99 % of control and the T/C [12] was 90 % of control.

For `OC(Cc1ccc2ccccc2n1)C(Cl)(Cl)Cl` (stereo not drawn), the T/C (dose: 3.12 mg/kg/injection, schedule: Q01DX009 (ip), vehicle: saline with Tween-80) was 95 % of control, the T/C (dose: 6.25 mg/kg/injection, schedule: Q01DX009 (ip), vehicle: saline with Tween-80) was 100 % of control and the T/C [7] was 100 % of control. The T/C (dose: 12.5 mg/kg/injection, schedule: Q04DX003 (ip), vehicle: saline with Tween-80) was 100 % of control, the T/C [8] was 92 % of control and the T/C (dose: 25.0 mg/kg/injection, schedule: Q04DX003 (ip), vehicle: saline with Tween-80) was 105 % of control. The T/C [9] was 90 % of control, the T/C [13] was 100 % of control and the T/C (dose: 100.0 mg/kg/injection, schedule: Q04DX003 (ip), vehicle: saline with Tween-80) was 91 % of control.

For `CCCCCCCCCCCCCCCC[N+](C)(C)C(C)c1ccc(OC)cc1` (stereo not drawn), the T/C (dose: 6.25 mg/kg/injection, schedule: Q04DX003 (ip), vehicle: saline with Tween-80) was 123 % of control.

`Cc1c(N)ncc2ccccc12` was tested, and the T/C (dose: 12.5 mg/kg/injection, schedule: Q04DX003 (ip), vehicle: saline) was 115 % of control, the T/C (dose: 25.0 mg/kg/injection, schedule: Q04DX003 (ip), vehicle: saline) was 108 % of control and the T/C [14] was 99 % of control. The T/C [6] was 118 % of control.

With `O=c1ccccc(Br)c1O` the T/C (dose: 25.0 mg/kg/injection, schedule: Q01DX001 (ip), vehicle: Klucel (hydroxypropylcellulose) (HPC)) was 110 % of control and the T/C (dose: 100.0 mg/kg/injection, schedule: Q01DX001 (ip), vehicle: Klucel (hydroxypropylcellulose) (HPC)) was 121 % of control.

`NC1=NNC(N)=NN1` was tested, and the T/C (dose: 12.5 mg/kg/injection, schedule: Q01DX009 (ip), vehicle: saline) was 94 % of control, the T/C (dose: 25.0 mg/kg/injection, schedule: Q01DX009 (ip), vehicle: saline) was 100 % of control and the T/C [10] was 96 % of control.

`CCCc1cc(CCC)nc(NNc2nc(CCC)cc(CCC)n2)n1` was tested, and the T/C [11] was 86 % of control, the T/C [12] was 100 % of control and the T/C [15] was 100 % of control.

In the case of `O=Cc1[nH]c(=O)[nH]c(=O)c1Br`, the T/C [13] is reported as 112 % of control.

In the case of `N/N=C(\N)c1nn[nH]n1`, the T/C [8] is reported as 96 % of control, the T/C [9] is reported as 96 % of control and the T/C [11] is reported as 110 % of control. For the same compound, the T/C [12] was 86 % of control.

`C=C(Cl)C(=O)OCC` was tested, and the T/C (dose: 5.0 mg/kg/injection, schedule: Q04DX003 (ip), vehicle: saline) was 100 % of control, the T/C (dose: 10.0 mg/kg/injection, schedule: Q04DX003 (ip), vehicle: saline) was 109 % of control and the T/C (dose: 20.0 mg/kg/injection, schedule: Q04DX003 (ip), vehicle: saline) was 100 % of control.

With `c1ccc2cc(-c3cc4ccccc4s3)ccc2c1` the T/C (dose: 50.0 mg/kg/injection, schedule: Q01DX010 (ip), vehicle: saline) was 95 % of control, the T/C [5] was 120 % of control and the T/C (dose: 100.0 mg/kg/injection, schedule: Q01DX010 (ip), vehicle: saline) was 100 % of control. The T/C (dose: 200.0 mg/kg/injection, schedule: Q01DX009 (ip), vehicle: Klucel (hydroxypropylcellulose) (HPC)) was 120 % of control, the T/C (dose: 200.0 mg/kg/injection, schedule: Q01DX010 (ip), vehicle: saline) was 100 % of control and the T/C (dose: 400.0 mg/kg/injection, schedule: Q01DX009 (ip), vehicle: Klucel (hydroxypropylcellulose) (HPC)) was 115 % of control. For the same compound, the T/C (dose: 400.0 mg/kg/injection, schedule: Q01DX010 (ip), vehicle: saline) was 100 % of control.

In the case of `Nc1ncnc2[nH]c(=O)[nH]c12`, the T/C [7] is reported as 104 % of control, the T/C [8] is reported as 109 % of control and the T/C (dose: 200.0 mg/kg/injection, schedule: Q04DX003 (ip), vehicle: saline with Tween-80) is reported as 104 % of control. For the same compound, the T/C (dose: 400.0 mg/kg/injection, schedule: Q04DX003 (ip), vehicle: saline with Tween-80) was 114 % of control.

In the case of `CN(C)c1ccc(C(N)=O)cn1`, the T/C (dose: 0.51 mg/kg/injection, schedule: Q01DX009 (ip), vehicle: saline) is reported as 95 % of control, the T/C (dose: 1.03 mg/kg/injection, schedule: Q01DX009 (ip), vehicle: saline) is reported as 115 % of control and the T/C (dose: 2.0 mg/kg/injection, schedule: Q01DX009 (ip), vehicle: saline) is reported as 90 % of control. For the same compound, the T/C (dose: 2.06 mg/kg/injection, schedule: Q01DX009 (ip), vehicle: saline) was 100 % of control, the T/C (dose: 3.0 mg/kg/injection, schedule: Q04DX003 (ip), vehicle: saline) was 100 % of control and the T/C (dose: 3.13 mg/kg/injection, schedule: Q01DX009 (ip), vehicle: saline) was 100 % of control. For the same compound, the T/C (dose: 4.12 mg/kg/injection, schedule: Q01DX009 (ip), vehicle: saline) was 112 % of control, the T/C (dose: 4.7 mg/kg/injection, schedule: Q01DX009 (ip), vehicle: saline) was 86 % of control and the T/C (dose: 6.0 mg/kg/injection, schedule: Q04DX003 (ip), vehicle: saline) was 100 % of control. The T/C (dose: 12.0 mg/kg/injection, schedule: Q04DX003 (ip), vehicle: saline) was 109 % of control, the T/C (dose: 17.0 mg/kg/injection, schedule: Q04DX003 (ip), vehicle: saline) was 118 % of control and the T/C (dose: 40.0 mg/kg/injection, schedule: Q04DX003 (ip), vehicle: saline) was 95 % of control.

`O=C(C(Br)C(Br)c1ccccc1)C(Br)C(Br)c1ccccc1` (stereo not drawn) was tested, and the T/C [11] was 104 % of control, the T/C [12] was 104 % of control and the T/C [15] was 100 % of control.

`O=C1NN=C(c2ccc(Cl)cc2)CS1` was tested, and the T/C [9] was 103 % of control and the T/C [11] was 103 % of control.

In the case of `COC(OC)C1(O)CC(C(C)C)OC(=O)N1` (stereo not drawn), the T/C [14] is reported as 97 % of control and the T/C [6] is reported as 105 % of control.

With `CCP(=Nc1cc(C(C)(C)C)cc(C(C)(C)C)c1O)(c1ccccc1)c1ccccc1` the T/C [9] was 96 % of control, the T/C [11] was 91 % of control and the T/C [12] was 89 % of control.

For `O=C(Nc1cccc(Cl)c1)C1CCCC1=Nc1cccc(Cl)c1` (stereo not drawn), the T/C [9] was 100 % of control and the T/C [11] was 106 % of control.

`CC(=O)OC1CC2(O)C(CCC3(C)C(c4ccc(=O)oc4)CCC32O)C2(C)CCC(OC3OC(CO)C(O)C(O)C3O)C=C12` (stereo not drawn) was tested, and the T/C (dose: 125.0 micrograms/kg/injection, schedule: Q01DX010 (ip), vehicle: saline) was 90 % of control.

From PubChem BioAssay AID328 (DTP/NCI, 2004)
